From patent publication US11396522B2, “Bis-acetal-based substrates for imaging exo-glycosidase activity” (ALECTOS THERAPEUTICS INC., priority 2017, dated 2022)
Entries after “also recorded” stand apart in the source; their conditions may differ.

Legend:
GBA1 = biological target: T1, GBA1 (Homo sapiens, UniProt P04062); test: Live cell imaging of GBA1 activity in SK-N-SH cells; format: cell-based
T1 sequence (P04062 40-536): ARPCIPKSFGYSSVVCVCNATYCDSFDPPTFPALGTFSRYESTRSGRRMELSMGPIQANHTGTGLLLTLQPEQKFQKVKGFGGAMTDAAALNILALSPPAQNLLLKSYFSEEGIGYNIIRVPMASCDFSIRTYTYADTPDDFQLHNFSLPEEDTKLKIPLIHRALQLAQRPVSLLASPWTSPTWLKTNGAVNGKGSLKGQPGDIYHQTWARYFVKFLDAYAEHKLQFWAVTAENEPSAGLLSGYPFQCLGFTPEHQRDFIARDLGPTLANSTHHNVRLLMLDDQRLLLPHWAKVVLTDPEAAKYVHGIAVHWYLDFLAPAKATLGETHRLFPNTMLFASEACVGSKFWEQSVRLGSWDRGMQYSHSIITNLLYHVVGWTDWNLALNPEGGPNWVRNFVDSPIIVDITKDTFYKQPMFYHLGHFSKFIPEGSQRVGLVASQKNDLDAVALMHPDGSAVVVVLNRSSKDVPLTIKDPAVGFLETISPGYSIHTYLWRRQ
Procedure: SK-N-SH cells were cultured, except where indicated otherwise, in EMEM supplemented with 10% FBS and 1% penicillin-streptomycin at 37° C. and 5% CO2. The media was replaced every 3-4 days and the cells passaged after reaching 70-80% confluency, which occurred approximately every week. For imaging experiments, cells were seeded in triplicate into the central 60 wells of a sterile 96-well plate (Corning 4680) at a density of 10000 cells/well.
Fluorescence measurements in live cells was performed using a Molecular Devices ImageXpress XLS High-Content Imaging system (HCl). Live cells were plated in a 96-well or 384-well Corning plates. Cells were left to adhere and incubated at 37° C. in 5% CO2 for at least 12 h in EMEM supplemented with 10% FBS and 1% penicillin-streptomycin before any treatment. Cells were then washed with warm (37° C.) EMEM (with no phenol red and FBS). A mixture of vehicle, substrate dissolved in DMSO (0.1% final concentration of DMSO), or substrate and inhibitor mixture, were added to the imaging media (EMEM with no phenol red or FBS supplemented with DAPI) which was then added to these cells and incubated at 37° C. and 5% CO2 in the dark for the times specified (typically 2 h). […] For each well, 9 sites were imaged at predefined regions of each well and 2 to 3 channel were recorded (DAPI, FITC, TRITC). The data was analyzed using the MetaXpress software suite. by determining the Mean Integrated Intensity obtained using the TRITC channel and dividing by the number of cells (determined thanks to DAPI staining).
The Glc-H-BABS(TAMRA/BHQ2) 8 was also evaluated in the human neuronal cell culture model cells SK-N-SH. […] By integrating the fluorescence intensity from randomly selected fields, it was possible to observe a quantitative increase in fluorescence with increasing concentrations of the Glc-BABS 8. Next, it was established that there is a dose-dependent cellular fluorescence where a linear increase in fluorescence was observed that depended on the concentration of Glc-BABS 8 (FIG. 12). […]

hOGA = biological target: T2, hOGA (Homo sapiens, UniProt O60502); test: Interrupted assay for determination of hemiacetal breakdown; format: biochemical
T2 construct: started by addition of hOGA (WT, Full-length, expressed in E. coli. as previously described); made in house; host or cells: E. coli
T2 sequence (O60502 1-916): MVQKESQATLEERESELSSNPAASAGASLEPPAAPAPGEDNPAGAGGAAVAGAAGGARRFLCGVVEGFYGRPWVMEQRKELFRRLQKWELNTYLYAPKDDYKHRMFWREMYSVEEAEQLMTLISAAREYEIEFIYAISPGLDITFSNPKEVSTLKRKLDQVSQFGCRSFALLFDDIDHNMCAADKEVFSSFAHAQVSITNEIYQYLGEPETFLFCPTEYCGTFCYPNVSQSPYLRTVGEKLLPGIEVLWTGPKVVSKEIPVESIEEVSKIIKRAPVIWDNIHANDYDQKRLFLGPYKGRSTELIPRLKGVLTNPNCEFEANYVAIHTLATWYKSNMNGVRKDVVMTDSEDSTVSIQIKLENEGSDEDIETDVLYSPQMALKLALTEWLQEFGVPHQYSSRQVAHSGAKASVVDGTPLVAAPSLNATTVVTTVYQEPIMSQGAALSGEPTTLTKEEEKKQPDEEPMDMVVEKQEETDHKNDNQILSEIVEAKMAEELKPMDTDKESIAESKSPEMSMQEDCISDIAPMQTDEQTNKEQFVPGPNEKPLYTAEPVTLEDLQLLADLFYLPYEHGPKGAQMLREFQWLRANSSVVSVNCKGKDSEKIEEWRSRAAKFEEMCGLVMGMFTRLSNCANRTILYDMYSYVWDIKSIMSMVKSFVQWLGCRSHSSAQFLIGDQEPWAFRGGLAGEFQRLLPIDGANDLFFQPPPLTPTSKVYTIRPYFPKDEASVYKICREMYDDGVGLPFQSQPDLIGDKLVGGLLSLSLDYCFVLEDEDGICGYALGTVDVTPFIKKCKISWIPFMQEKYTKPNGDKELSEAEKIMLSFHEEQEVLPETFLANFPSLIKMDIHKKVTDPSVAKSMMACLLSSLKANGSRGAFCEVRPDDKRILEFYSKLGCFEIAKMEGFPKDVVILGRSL
Procedure: For some experiments, fluorescence kinetic assays were performed using a Varian Cary Eclipse Spectrophotometer set for 335/493 nm excitation/emission wavelengths. Slits were set at 10 nm and the detector was set on Medium voltage. Enzymatic reactions with human OGA were carried out in PBS at 37° C. and were started by addition of hOGA (WT, Full-length, expressed in E. coli. as previously described) in a total volume of 160 μL (Starna sub-micro Fluorometer cuvette). For measurements of rates using different concentrations of substrates, a hOGA concentration of 100 nM was used. For hOGA titration, 25 μM of Glyco-BABS were added to various concentration of hOGA. For interrupted assay, reaction was started by addition of hOGA (680 nM final) in solutions of GlcNAc-BABS in PBS. […] For hemiacetal breakdown rate measurements, data after Thiamet-G addition was extracted and fitted using Prism software. EDANS standard curve was established using endpoint fluorescence measurements of serial dilutions of EDANS in the relevant buffer using the same instrument parameters. Inner-Filter effect measurements were carried out in cuvette by measuring fluorescence of several concentrations of EDANS in presence of various concentrations of GlcNAc-BABS. Kinetics with Glc-BABS and GBA enzymes (GBA1 and GBA3 purchased from R&D Systems), kinetics with GALC (R&D systems) and Gal-BABS, pH stability, quenching efficiency, some inner-filter effect experiments and lysates experiments were carried out using a Molecular Devices SpectraMax i3× plate reader. Emission/Excitation wavelengths were set at 350 and 490 nm respectively for EDANS/DABCYL Glyco-BABS and at 565 and 610 nm respectively for TAMRA/BHQ2 Glyco-BABS. Fluorescence measurements were performed using Costar 96-well black plates or Nunc 384-well black plates after sample preparation in 96-well mixing plates. For GBA1, the continuous assay was performed in citrate buffer (50 mM, pH 5.5) in the presence of 0.1% Triton, 1 mg/mL BSA and 0.14% taurodeoxycholate at 25° C. […]

[1] = pH stability of Glyco-BABS; format: physicochemical; settings: 5 μM, up to 72 h, pH 2 to 10
Text: One concern with the Glyco-BABS design was the known lability of acetals under acidic conditions that has been exploited in pH-sensitive prodrugs or linkers for drug delivery.^41,42 However, we recognized that carbohydrate anomeric acetals are chemically distinct from regular acetals. Due to stabilization by the endocyclic oxygen, we expected these bis-acetals would show stability across a range of physiological pH values. We therefore assessed the stability of the bis-acetal motif toward acid and base hydrolysis (FIG. 8). To do so, we tested the pH stability of 5 μM of GlcNAc-Br-BABS 1, GlcNAc-OH-BABS 2, Glc-OH-BABS 6 and Glc-H-BABS 7 at different pH over time. We prepared solutions at various pH by mixing 0.2 M KCl+0.1 M HCl with 0.2 M KCl+0.1 M KOH. Fluorescence of EDANS and Glyco-BABS solutions (5 μM, 45 μL) at different pH was measured at different time points in Nunc 384-well plates using a SpectraMax i3× plate reader. Data (triplicates) support the highly efficient quenching and the stability of these substrates over a wide range of pH.

## O[C@H]1[C@H](O)CNC[C@@H]1C(F)F [AT3375, (3R,4R,5S)-5-(difluoromethyl)piperidine-3,4-diol]
GBA1; 10 μM AT3375 with 5 μM Glc-BABS 8
  effect on fluorescent signal of Glc-BABS 8 in live SK-N-SH cells: significant reduction; also recorded: clear decrease of the signal
GBA1; varying AT3375 concentrations, 5 μM Glc-BABS 8, 2 h
  fluorescence signal vs inhibitor concentration in live SK-N-SH cells: decreasing fluorescence signal with increasing inhibitor concentration

## CC(=O)N[C@H]1[C@H](O[C@@H](OCCOCCn2cc(CNC(=O)c3ccc(/N=N/c4ccc(N(C)C)cc4)cc3)nn2)[C@@](C)(O)C(=O)NCCNc2cccc3c(S(=O)(=O)O)cccc23)O[C@H](CO)[C@@H](O)[C@@H]1O [Compound 2, 5-((2-((2R,3R)-3-(((2S,3R,4R,5S,6R)-3-acetamido-4,5-dihydroxy-6-(hydroxymethyl)tetrahydro-2H-pyran-2-yl)oxy)-3-(2-(2-(4-((4-((E)-(4-(dimethylamino)phenyl)diazenyl)benzamido)methyl)-1H-1,2,3-triazol-1-yl)ethoxy)ethoxy)-2-hydroxy-2-methylpropanamido)ethyl)amino)naphthalene-1-sulfonic Acid]
hOGA; hemiacetal generated from the substrate, hOGA stopped after 1 min with Thiamet-G 100 μM
  first order rate constant (k3) for hemiacetal breakdown: 0.044 s⁻¹
hOGA; ratio of k3
  hemiacetal breakdown, times faster than the one from GlcNAc-Br-BABS 1: 4.5 times
[1]
  pH stability (increase of fluorescence): no significant increase of fluorescence

## COc1cc(/N=N/c2ccc([N+](=O)[O-])cc2)c(OC)cc1/N=N/c1ccc(N(C)CCCC(=O)NCc2cn(CCOCCOC(CC(=O)NCCCCCCNC(=O)c3ccc(-c4c5ccc(=[N+](C)C)cc-5oc5cc(N(C)C)ccc45)c(C(=O)[O-])c3)O[C@@H]3O[C@H](CO)[C@@H](O)[C@H](O)[C@H]3O)nn2)cc1 (stereo partly drawn) [Compound 8, 5-((6-(3-(2-(2-(4-((4-((4-((E)-(2,5-dimethoxy-4-((E)-(4-nitrophenyl)diazenyl)phenyl)diazenyl)phenyl)(methyl)amino)butanamido)methyl)-1H-1,2,3-triazol-1-yl)ethoxy)ethoxy)-3-(((2S,3R,4S,5S,6R)-3,4,5-trihydroxy-6-(hydroxymethyl)tetrahydro-2H-pyran-2-yl)oxy)propanamido)hexyl)carbamoyl)-2-(6-(dimethylamino)-3-(dimethyliminio)-3H-xanthen-9-yl)benzoate]
GBA1; 5 μM and varying concentrations, 1 to 2 h
  processing to fluorescent product in live SK-N-SH cells: processed in cells to result in the fluorescent product
